Laboratory results reported in US20260055114A1, “IMIDAZO[1,2-B]PYRIDAZINE INHIBITORS OF CYCLIN-DEPENDENT KINASES” (H. LEE MOFFITT CANCER CENTER AND RESEARCH INSTITUTE, INC., priority 2022, published 2026).

Tests used:
CCNK = CCNK degradation (DC50, Dmax); type: cell-based; conditions: for Dmax (%): CCNK degradation
MDA-MB-231 cell line = test: Antiproliferative activity, MDA-MB-231 cell line (GI50); type: cell-based; conditions: Homo sapiens
CDK12 = CDK12 (Homo sapiens, UniProt Q9NYV4); test: Inhibition of cyclin-dependent kinase 12 (% enzyme activity at 1 uM and IC50); type: biochemical; conditions: for remaining activity at 1 µM: 1 uM compound
CDK12, sequence (Q9NYV4 whole entry): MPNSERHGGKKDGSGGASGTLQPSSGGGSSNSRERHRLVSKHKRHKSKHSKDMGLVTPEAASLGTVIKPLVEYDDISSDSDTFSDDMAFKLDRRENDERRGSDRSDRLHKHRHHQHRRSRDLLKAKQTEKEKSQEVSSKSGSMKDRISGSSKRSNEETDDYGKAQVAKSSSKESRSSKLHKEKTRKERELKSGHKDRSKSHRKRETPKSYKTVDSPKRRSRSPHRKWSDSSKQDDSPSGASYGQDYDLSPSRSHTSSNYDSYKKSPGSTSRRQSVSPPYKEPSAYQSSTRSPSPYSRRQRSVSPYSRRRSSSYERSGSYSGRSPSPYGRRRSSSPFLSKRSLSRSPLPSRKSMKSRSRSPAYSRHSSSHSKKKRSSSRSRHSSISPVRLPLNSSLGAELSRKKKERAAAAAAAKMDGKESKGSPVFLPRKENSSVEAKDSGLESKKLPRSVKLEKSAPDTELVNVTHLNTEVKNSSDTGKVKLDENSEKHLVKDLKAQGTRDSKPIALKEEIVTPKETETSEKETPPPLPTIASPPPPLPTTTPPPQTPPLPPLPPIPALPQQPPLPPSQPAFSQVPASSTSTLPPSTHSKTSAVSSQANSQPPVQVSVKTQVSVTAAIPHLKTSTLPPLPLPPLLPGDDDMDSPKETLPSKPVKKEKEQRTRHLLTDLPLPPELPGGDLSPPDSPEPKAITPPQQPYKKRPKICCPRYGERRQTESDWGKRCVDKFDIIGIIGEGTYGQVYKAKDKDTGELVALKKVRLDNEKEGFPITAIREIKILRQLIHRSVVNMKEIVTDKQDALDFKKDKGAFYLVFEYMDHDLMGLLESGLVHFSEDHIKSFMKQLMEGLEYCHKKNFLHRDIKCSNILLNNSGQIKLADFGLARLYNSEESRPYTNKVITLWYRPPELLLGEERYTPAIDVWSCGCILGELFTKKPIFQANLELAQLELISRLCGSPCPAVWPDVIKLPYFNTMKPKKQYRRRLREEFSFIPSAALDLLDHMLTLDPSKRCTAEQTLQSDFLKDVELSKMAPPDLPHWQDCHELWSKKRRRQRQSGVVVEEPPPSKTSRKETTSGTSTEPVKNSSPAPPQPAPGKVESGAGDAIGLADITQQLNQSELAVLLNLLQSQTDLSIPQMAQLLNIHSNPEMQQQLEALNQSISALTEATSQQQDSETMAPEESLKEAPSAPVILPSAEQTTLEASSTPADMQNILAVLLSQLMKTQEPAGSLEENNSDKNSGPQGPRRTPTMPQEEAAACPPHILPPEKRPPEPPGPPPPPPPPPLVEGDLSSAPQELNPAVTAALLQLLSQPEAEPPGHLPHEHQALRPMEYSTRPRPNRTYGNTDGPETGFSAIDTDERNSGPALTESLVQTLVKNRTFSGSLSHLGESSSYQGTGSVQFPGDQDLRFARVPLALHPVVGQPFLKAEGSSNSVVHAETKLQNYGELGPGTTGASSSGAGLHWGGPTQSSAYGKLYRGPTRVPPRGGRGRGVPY
CDK12, sequence (O75909 whole entry partner): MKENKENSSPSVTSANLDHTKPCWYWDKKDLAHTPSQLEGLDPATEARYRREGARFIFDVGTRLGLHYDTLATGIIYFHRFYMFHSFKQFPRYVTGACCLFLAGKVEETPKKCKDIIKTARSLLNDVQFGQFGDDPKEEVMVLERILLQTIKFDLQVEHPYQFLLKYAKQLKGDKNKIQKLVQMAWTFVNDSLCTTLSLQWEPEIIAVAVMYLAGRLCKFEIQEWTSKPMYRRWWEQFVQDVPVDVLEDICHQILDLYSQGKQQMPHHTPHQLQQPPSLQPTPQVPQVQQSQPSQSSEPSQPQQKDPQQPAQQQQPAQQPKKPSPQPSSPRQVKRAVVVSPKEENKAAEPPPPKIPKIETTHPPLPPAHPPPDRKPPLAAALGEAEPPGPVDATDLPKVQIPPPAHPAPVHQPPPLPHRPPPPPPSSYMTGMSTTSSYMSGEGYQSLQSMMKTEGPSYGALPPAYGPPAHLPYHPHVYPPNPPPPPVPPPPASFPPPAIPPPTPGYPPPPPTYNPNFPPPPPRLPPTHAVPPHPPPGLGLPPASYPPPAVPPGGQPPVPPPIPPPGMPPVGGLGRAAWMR

DC50 (CCNK) [nM] | GI50 (MDA-MB-231 cell line) [nM] | remaining activity at 1 µM (CDK12) [%] | IC50 (CDK12) [nM] | Structure (SMILES) | Dmax (%) (CCNK)
1000 | 1500 | 70 | – | Cc1cc(-c2cnc3c(NCc4nc5c(F)cccc5[nH]4)cc(N4CCOCC4)nn23)cs1 [Cmpd 94, N-((4-fluoro-1H-benzo[d]imidazol-2-yl)methyl)-3-(5-methylthiophen-3-yl)-6-morpholinoimidazo[1,2-b]pyridazin-8-amine] | 80
1800 | 3110 | 63 | – | Cc1cc(-c2cnc3c(NCc4nc5c(F)c(F)ccc5[nH]4)cc(N4CCN(C)CC4)nn23)cs1 [Cmpd 96, N-((4,5-difluoro-1H-benzo[d]imidazol-2-yl)methyl)-6-(4-methylpiperazin-1-yl)-3-(5-methylthiophen-3-yl) imidazo[1,2-b]pyridazin-8-amine] | 75
1300 | 10000 | 79 | – | Cc1cc(-c2cnc3c(NCc4nc5c(F)c(F)ccc5[nH]4)cc(N4CCOCC4)nn23)cs1 [Cmpd 97, N-((4,5-difluoro-1H-benzo[d]imidazol-2-yl)methyl)-3-(5-methylthiophen-3-yl)-6-morpholinoimidazo[1,2-b]pyridazin-8-amine] | 75
10000 | 689 | 59 | 1250 | Cc1noc(C)c1-c1cnc2c(NCc3nc4cc(Cl)c(Cl)cc4[nH]3)cc(N3CCN(C)CC3)nn12 [Cmpd 99, N-((5,6-dichloro-1H-benzo[d]imidazol-2-yl)methyl)-3-(3,5-dimethylisoxazol-4-yl)-6-(4-methylpiperazin-1-yl) imidazo[1,2-b]pyridazin-8-amine] | –
10000 | 2030 | 73 | 3000 | Cc1noc(C)c1-c1cnc2c(NCc3nc4cc(Cl)c(Cl)cc4[nH]3)cc(N3CCOCC3)nn12 [Cmpd 100, N-((5,6-dichloro-1H-benzo[d]imidazol-2-yl)methyl)-3-(3,5-dimethylisoxazol-4-yl)-6-morpholinoimidazo[1,2-b]pyridazin-8-amine] | –
